From ChEMBL document CHEMBL1144669, “Pyridazinone derivatives: design, synthesis, and in vitro vasorelaxant activity” (2008)

test: Vasorelaxant effect in rabbit pulmonary artery assessed as inhibition of KCl-induced contraction at 100 uM; type: functional; conditions: Oryctolagus cuniculus

Going from `CCOc1ccc2nc(C)cc(Nc3ccc(C4=NNC(=O)CC4)c(O)c3)c2c1` to `COc1ccc2nc(C)cc(Nc3ccc(C4=NNC(=O)CC4)c(O)c3)c2c1`, the inhibition at 100 µM falls from 36.2% to 34.3%.

First: N#Cc1c(-c2cccc([N+](=O)[O-])c2)cc(-c2cccc(Nc3ccc(=O)[nH]n3)c2)[nH]c1=O
Second: N#Cc1c(-c2cccnc2)cc(-c2cccc(Nc3ccc(=O)[nH]n3)c2)[nH]c1=O
The inhibition at 100 µM of the first is higher: 9.1% for the first, 8.17% for the second.

Going from `COc1ccc2nc(C)cc(Nc3ccc(C4=NNC(=O)CC4C)cc3)c2c1` (stereo unspecified) to `Cc1ccc2nc(C)cc(Nc3ccc(C4=NNC(=O)CC4C)cc3)c2c1` (stereo unspecified), the inhibition at 100 µM rises from 21.5% to 22.7%.

`CCOC(=O)c1c[nH]c2ccc(C3=NNC(=O)CC3C)cc2c1=O` (stereo unspecified) and `CCOC(=O)c1c[nH]c2ccc(C3=NNC(=O)CC3)cc2c1=O` are the same in inhibition at 100 µM: 14.5% for the first, 14.5% for the second.

Going from `COc1ccc2nc(C)cc(Nc3ccc(C4=NNC(=O)CC4)c(C)c3)c2c1` to `Cc1ccc2nc(C)cc(Nc3ccc(C4=NNC(=O)CC4)c(O)c3)c2c1`, the inhibition at 100 µM falls from 25% to 18.5%.

With `Cc1[nH]c(=O)c(C#N)cc1-c1ccncc1` [MILRINONE] the inhibition at 100 µM was 60.5%.
